Assay results taken from patent US11352396B2, “Antimicrobial peptides and methods of using same” (Zoetis Services LLC, priority 2017, dated 2022).

What was measured:
[1] = tested on: cRBC; type: cell-based, canine
In short: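 Washed, plasma-free red cells were incubated with peptide titrated from 50 µM to 0.05 µM for 1 h at 37 °C. Hemolysis was read as OD at 405 nm, scaled between phosphate buffer alone (0%) and 1% Triton X-100 (100%).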

[2] = tested on: S. aureus ATCC 29213; type: cell-based; design: key to SA 29213: MIC in μM (lowest conc. with no visible growth); conditions: S. aureus 29213, Table 6
In short: (§1)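 Broth microdilution followed CLSI VET01-S2, with peptides serially diluted to in-assay concentrations of 50 μM to 0.05 μM. A 0.5 McFarland inoculum diluted 1:250 in Mueller-Hinton Broth was incubated with peptide for 18-20 hours. MIC was read visually as the first well without visible growth.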

[3] = tested on: E. coli ATCC 25922; type: cell-based; conditions: E. coli 25922, Table 6
In short: as §1

[4] = tested on: MSSP (Methicillin-Susceptible Staphylococcus pseudintermedius); experiment: MIC against selected strains of MSSP; type: cell-based; design: MIC MSSP 49051 / MIC MSSP 81923 / MIC MSSP 84250 / Effect on MSSP 86000 / Effect on MSSP 72036 / Effect on MSSP 78032: unit not given beside the values; Effect on MSSP 71990 / Effect on MSSP 86001 / Effect on MSSP 72191 / Effect on MSSP 76986 / Effect on MSSP 77378 / Effect on MSSP 81923 / Effect on MSSP 84250 / Effect on MSSP 84658: unit: µM; conditions: for SP 49051: S. pseudintermedius 49051, Table 6; for Effect on MSSP 71990: strain 71990, Table 5; for Effect on MSSP 72036: strain 72036, Table 5; for Effect on MSSP 72191: strain 72191, Table 5; for Effect on MSSP 76986: strain 76986, Table 5; for Effect on MSSP 77378: strain 77378, Table 5; for Effect on MSSP 78032: strain 78032, Table 5; for Effect on MSSP 81923: strain 81923, Table 5; for Effect on MSSP 84250: strain 84250, Table 5; for Effect on MSSP 84658: strain 84658, Table 5; for Effect on MSSP 86000: strain 86000, Table 5; for Effect on MSSP 86001: strain 86001, Table 5
In short: (§2)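 Broth microdilution MIC following CLSI VET01-S2: peptides titrated 50 μM to 0.05 μM in assay, inoculum a 0.5 McFarland suspension diluted 1:250 in Mueller-Hinton broth. Incubated overnight (18–20 h); MIC taken visually as lowest concentration without visible growth.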

[5] = tested on: MRSP (Methicillin-Resistant Staphylococcus pseudintermedius); experiment: MIC against selected strains of MRSP; type: cell-based; design: key to MIC MRSP 72192 / MIC MRSP 76923 / MR 71994 / Mr 88493 / MR 72035 / MR 72192 / MR 76923 / MR 79882 / MR 80279 / MR 81926 / MR 86002 / MR 87665: MIC in μM (visual, first well with no growth); conditions: for MR 71994: MRSP strain 71994, Table 6; for MR 72035: MRSP strain 72035, Table 6; for MR 72192: MRSP strain 72192, Table 6; for MR 76923: MRSP strain 76923, Table 6; for MR 79882: MRSP strain 79882, Table 6; for MR 80279: MRSP strain 80279, Table 6; for MR 81926: MRSP strain 81926, Table 6; for MR 86002: MRSP strain 86002, Table 6; for MR 87665: MRSP strain 87665, Table 6; for Mr 88493: MRSP strain 88493, Table 6
In short: as §2

[6] = tested on: Canine-derived epithelial keratinocyte (CPEK) cells; type: cell-based
In short: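 CPEK cells were dosed with peptides at 50 μM to 0.05 μM and incubated overnight at 37 °C, 5% CO2. Viability was read by CellTiter-Glo luminescence. Percent effect was normalised to 0.1% Triton X-100 (high) and phosphate buffer alone (zero).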

Substance | cRBC (50 μM) [1] | SA 29213 [2] | EC 25922 [3] [µM] | SP 49051 [4] | Effect on MSSP 71990 [4] | Effect on MSSP 72036 [4] | Effect on MSSP 72191 [4] | Effect on MSSP 76986 [4] | Effect on MSSP 77378 [4] | Effect on MSSP 78032 [4] | Effect on MSSP 81923 [4] | Effect on MSSP 84250 [4] | Effect on MSSP 84658 [4] | Effect on MSSP 86000 [4] | Effect on MSSP 86001 [4] | MR 71994 [5] | MR 72035 [5] | MR 72192 [5] | MR 76923 [5] | MR 79882 [5] | further results
105 (KWCFRVCYRGICYRRCRN; Artificial Antimicrobial peptide) [compound 105] | 97.9 | 6.2 | 3.1 | 1.6 | 1.6 | 1.6 | 1.6 | 1.6 | 0.8 | 1.6 | 1.6 | 1.6 | 3.1 | 1.6 | 1.6 | 1.6 | 1.6 | 1.6 | 1.6 | 0.8 | MR 80279 [5]: 1.6; MR 81926 [5]: 1.6; MR 86002 [5]: 1.6; MR 87665 [5]: 1.6; Mr 88493 [5]: 3.1; CPEK (50 μM) [6]: 8.6
106 (KWCWRVCYRGICYRRCRD; Artificial Antimicrobial peptide) [compound 106] | 101.5 | 3.1 | 3.1 | 1.6 | 1.6 | 1.6 | 1.6 | 1.6 | 0.8 | 1.6 | 1.6 | 1.6 | 1.6 | 1.6 | 1.6 | 1.6 | 3.1 | 1.6 | 1.6 | 0.8 | MR 80279 [5]: 1.6; MR 81926 [5]: 1.6; MR 86002 [5]: 1.6; MR 87665 [5]: 1.6; Mr 88493 [5]: 3.1; CPEK (50 μM) [6]: 25.2
107 (KWCFRVCWRGICYRRCRD; Artificial Antimicrobial peptide) [compound 107] | 101.8 | 3.1 | 3.1 | 1.6 | 1.6 | 1.6 | 1.6 | 1.6 | 1.6 | 1.6 | 1.6 | 1.6 | 1.6 | 1.6 | 1.6 | 1.6 | 3.1 | 1.6 | 1.6 | 0.8 | MR 80279 [5]: 1.6; MR 81926 [5]: 1.6; MR 86002 [5]: 1.6; MR 87665 [5]: 1.6; Mr 88493 [5]: 1.6; CPEK (50 μM) [6]: 26.3
108 (KWCFRVCYGGICYRRCRD; Artificial Antimicrobial peptide) [compound 108] | 27.7 | 12.5 | 0.8 | 3.1 | 3.1 | 3.1 | 3.1 | 3.1 | 3.1 | 3.1 | 3.1 | 3.1 | 3.1 | 3.1 | 3.1 | 3.1 | 3.1 | 3.1 | 3.1 | 3.1 | MR 80279 [5]: 3.1; MR 81926 [5]: 3.1; MR 86002 [5]: 3.1; MR 87665 [5]: 3.1; Mr 88493 [5]: 3.1; CPEK (50 μM) [6]: 9.6
109 (KWCFRVCYRRICYRRCRD; Artificial Antimicrobial peptide) [compound 109] | 99.8 | 3.1 | 1.6 | 1.6 | 1.6 | 1.6 | 1.6 | 1.6 | 1.6 | 1.6 | 1.6 | 1.6 | 1.6 | 1.6 | 1.6 | 1.6 | 1.6 | 1.6 | 1.6 | 0.8 | MR 80279 [5]: 1.6; MR 81926 [5]: 1.6; MR 86002 [5]: 1.6; MR 87665 [5]: 1.6; Mr 88493 [5]: 1.6; CPEK (50 μM) [6]: 19.2
